Results reported in ChEMBL document CHEMBL4477199, “Design and synthesis of novel bicalutamide and enzalutamide derivatives as antiproliferative agents for the treatment of prostate cancer” (Eur J Med Chem, 2016).

Key:
[1] = 33000 µM
Description: Solubility in 100% DMSO at 33 mM at -20 degC

VCaP = experiment: Antiproliferative activity against human VCaP cells after 96 hrs by propidium iodide staining based fluorescence 2D monolayer assay; format: functional, cell-based
[2] = 96 h
Description: Solubility in RPMI1640 culture medium at <30 uM incubated for 4 days by microscopic analysis

DU-145 = experiment: Antiproliferative activity against human DU145 cells after 96 hrs by propidium iodide staining based fluorescence 2D monolayer assay; format: functional, cell-based; conditions: DU-145, 96 h
LNCaP = experiment: Antiproliferative activity against human LNCAP cells after 96 hrs by propidium iodide staining based fluorescence 2D monolayer assay; format: functional, cell-based
CWR22R = experiment: Antiproliferative activity against human 22Rv1 cells after 96 hrs by propidium iodide staining based fluorescence 2D monolayer assay; format: functional, cell-based; conditions: 22Rv1, 96 h

With `CC(O)(CS(=O)(=O)c1ccc(C(F)(F)F)cn1)C(=O)Nc1ccc([N+](=O)[O-])cc1C(F)(F)F` (stereo not drawn) the solubility [1] was “Soluble”, the IC50 (VCaP) was 100 µM and the solubility [2] was “Soluble”. It also gave an IC50 (DU-145) of 100 µM, an IC50 (LNCaP) of 100 µM and an IC50 (CWR22R) of 100 µM.

For `C[C@](O)(CS(=O)(=O)c1cccc(C(F)(F)F)c1)C(=O)Nc1ccc(C#N)c(C(F)(F)F)c1`, the solubility [1] was “Soluble”, the IC50 (VCaP) was 39.9 µM and the solubility [2] was “Soluble”. For the same compound, the IC50 (DU-145) was 45.2 µM, the IC50 (LNCaP) was 13.2 µM and the IC50 (CWR22R) was 25.7 µM.

For `CC1(C)C(=O)N(c2ccc(C(F)(F)F)cc2)C(=O)N1c1ccc(C#N)c(C(F)(F)F)c1`, the solubility [1] was “Soluble”, the IC50 (VCaP) was 30.1 µM and the solubility [2] was “Soluble”. The IC50 (DU-145) was 100 µM, the IC50 (LNCaP) was 9.37 µM and the IC50 (CWR22R) was 63.6 µM.

For `CC(O)(CS(=O)(=O)c1cccc(C(F)(F)F)c1)C(=O)Nc1ccc(C#N)c(C(F)(F)F)c1` (stereo not drawn), the solubility [1] was “Soluble”, the IC50 (VCaP) was 39.7 µM and the solubility [2] was “Soluble”. It also gave an IC50 (DU-145) of 39.1 µM, an IC50 (LNCaP) of 14.9 µM and an IC50 (CWR22R) of 21 µM.

For `CC(O)(COc1ccc(C(F)(F)F)cc1)C(=O)Nc1ccc([N+](=O)[O-])cc1C(F)(F)F` (stereo not drawn), the solubility [1] was “Soluble”, the IC50 (VCaP) was 18.6 µM and the solubility [2] was “Soluble”. The IC50 (DU-145) was 22.1 µM, the IC50 (LNCaP) was 13.6 µM and the IC50 (CWR22R) was 18.9 µM.

For `CC(O)(CSc1cccc(OC(F)(F)F)c1)C(=O)Nc1ccc([N+](=O)[O-])cc1C(F)(F)F` (stereo not drawn), the solubility [1] was “Soluble”, the IC50 (VCaP) was 15.9 µM and the solubility [2] was “Soluble”. For the same compound, the IC50 (DU-145) was 21.6 µM, the IC50 (LNCaP) was 9.15 µM and the IC50 (CWR22R) was 15.8 µM.

For `CC(O)(COc1cccc(OC(F)(F)F)c1)C(=O)Nc1ccc(C#N)cc1C(F)(F)F` (stereo not drawn), the solubility [1] was “Soluble”, the IC50 (VCaP) was 56.3 µM and the solubility [2] was “Soluble”. For the same compound, the IC50 (DU-145) was 35.9 µM, the IC50 (LNCaP) was 63.4 µM and the IC50 (CWR22R) was 28.7 µM.

In the case of `CC1(C)C(=O)N(c2cccc(C(F)(F)F)c2)C(=O)N1c1ccccc1C(F)(F)F`, the solubility [1] is reported as “Soluble”, the IC50 (VCaP) is reported as 100 µM and the solubility [2] is reported as “Soluble”. The IC50 (DU-145) was 100 µM, the IC50 (LNCaP) was 28.3 µM and the IC50 (CWR22R) was 100 µM.

With `CC(O)(COc1cccc(C(F)(F)F)c1)C(=O)Nc1ccc(C(F)(F)F)cc1` (stereo not drawn) the solubility [1] was “Soluble”, the IC50 (VCaP) was 18.6 µM and the solubility [2] was “Soluble”. It also gave an IC50 (DU-145) of 27.4 µM, an IC50 (LNCaP) of 18.2 µM and an IC50 (CWR22R) of 25.7 µM.

For `CC(O)(COc1ccc(C#N)cc1)C(=O)Nc1ccc(C#N)cc1C(F)(F)F` (stereo not drawn), the solubility [1] was “Soluble”, the IC50 (VCaP) was 61.4 µM and the solubility [2] was “Soluble”. The IC50 (DU-145) was 100 µM, the IC50 (LNCaP) was 34.7 µM and the IC50 (CWR22R) was 42.9 µM.

In the case of `CC(O)(CS(=O)(=O)c1cccc(C(F)(F)F)c1)C(=O)Nc1ccc(C#N)cc1C(F)(F)F` (stereo not drawn), the solubility [1] is reported as “Soluble”, the IC50 (VCaP) is reported as 44.9 µM and the solubility [2] is reported as “Soluble”. The IC50 (DU-145) was 45.9 µM, the IC50 (LNCaP) was 32.1 µM and the IC50 (CWR22R) was 34.4 µM.

With `CC1(C)C(=O)N(c2cccc(C(F)(F)F)c2)C(=O)N1c1ccc(C#N)cc1C(F)(F)F` the solubility [1] was “Soluble”, the IC50 (VCaP) was 100 µM and the solubility [2] was “Soluble”. The IC50 (DU-145) was 100 µM, the IC50 (LNCaP) was 18.3 µM and the IC50 (CWR22R) was 59.3 µM.

In the case of `CC(O)(COc1ccccc1C(F)(F)F)C(=O)Nc1ccc(C#N)cc1C(F)(F)F` (stereo not drawn), the solubility [1] is reported as “Soluble”, the IC50 (VCaP) is reported as 21.9 µM and the solubility [2] is reported as “Soluble”. For the same compound, the IC50 (DU-145) was 33.2 µM, the IC50 (LNCaP) was 14 µM and the IC50 (CWR22R) was 19.6 µM.

In the case of `CC(O)(CS(=O)(=O)c1cccc(C(F)(F)F)c1)C(=O)Nc1ccc([N+](=O)[O-])cc1C(F)(F)F` (stereo not drawn), the solubility [1] is reported as “Soluble”, the IC50 (VCaP) is reported as 38.7 µM and the solubility [2] is reported as “Soluble”. For the same compound, the IC50 (DU-145) was 32 µM, the IC50 (LNCaP) was 16.8 µM and the IC50 (CWR22R) was 18.1 µM.

In the case of `CC1(C)C(=O)N(c2ccc(C(F)(F)F)cc2)C(=O)N1c1cccc(C(F)(F)F)c1`, the solubility [1] is reported as “Soluble”, the IC50 (VCaP) is reported as 72.4 µM and the solubility [2] is reported as “Soluble”. The IC50 (DU-145) was 100 µM, the IC50 (LNCaP) was 5.95 µM and the IC50 (CWR22R) was 100 µM.

In the case of `CC(O)(COc1cccc(C(F)(F)F)c1)C(=O)Nc1ccc(C#N)cc1C(F)(F)F` (stereo not drawn), the solubility [1] is reported as “Soluble”, the IC50 (VCaP) is reported as 21.6 µM and the solubility [2] is reported as “Soluble”. It also gave an IC50 (DU-145) of 32.1 µM, an IC50 (LNCaP) of 15.2 µM and an IC50 (CWR22R) of 18.7 µM.

With `CC(O)(CS(=O)(=O)c1ccc(F)cc1)C(=O)Nc1ccc([N+](=O)[O-])cc1C(F)(F)F` (stereo not drawn) the solubility [1] was “Soluble”, the IC50 (VCaP) was 58.2 µM and the solubility [2] was “Soluble”. The IC50 (DU-145) was 60.7 µM, the IC50 (LNCaP) was 38.6 µM and the IC50 (CWR22R) was 46.7 µM.

For `CC(O)(CS(=O)(=O)c1ccc(C(F)(F)F)cc1)C(=O)Nc1ccc([N+](=O)[O-])cc1C(F)(F)F` (stereo not drawn), the solubility [1] was “Soluble”, the IC50 (VCaP) was 46.9 µM and the solubility [2] was “Soluble”. For the same compound, the IC50 (DU-145) was 40.9 µM, the IC50 (LNCaP) was 29.3 µM and the IC50 (CWR22R) was 25.4 µM.
